According to paper PMC12179616, “Novel and efficient synthesis of 5-chloro-6-methoxy-3-(2-((1-(aryl)-1H-1,2,3-triazol-4-yl)methoxy)ethyl)benzo[d]isoxazole derivatives as new α-glucosidase inhibitors” (Biochemistry and Biophysics Reports, 2025):
Values joined by “and” are separate entries in the source; they are usually repeats but may differ in a detail not shown here. Equal entries are not always repeated.

Tests used:
[1] = test system: Bacillus cereus (MTCC2128); test: Antibacterial activity, agar well diffusion; type: cell-based; conditions: for zone of inhibition / inhibition in words: 25 μl
Protocol: (§1) The antibacterial activity was determined by using the agar well diffusion method [[50], [51], [52]]. Two bacterial strains were used to evaluate the antibacterial efficacy of the synthesized compounds: one Gram-positive strain, Bacillus cereus (MTCC2128), and one Gram-negative strain, Escherichia coli (MTCC2412). Sterilized Mueller Hinton Broth (MHB) was used to cultivate the bacterial strains, and the mixture was incubated for 18 h at 37 °C. To evaluate the antibacterial activity, the inhibition zone (RIZ) radius encircled each well was determined in millimeters. The experiments were carried out duplicates. The incubation period for the plates was from 72 to 96 h at a temperature of 37 °C. The zone of inhibition was then looked for on the plates.

[2] = test system: Escherichia coli (MTCC2412); test: Antibacterial activity, agar well diffusion; type: cell-based
Protocol: as §1

α-glucosidase = conditions: Fig. 1; cited from earlier work

| Structure (SMILES) | zone of inhibition [1] | inhibition in words [1] | further results |
| --- | --- | --- | --- |
| COc1cc2onc(CCOCc3cn(-c4ccc(C(F)(F)F)cc4)nn3)c2cc1Cl [Compound 9l, 5-chloro-6-methoxy-3-(2-((1-(4-(trifluoromethyl)phenyl)-1H-1,2,3-triazol-4-yl)methoxy)ethyl)benzo[d]isoxazole] | 0.5 mm and 0.4 mm | – | antibacterial activity in words [1]: showed antibacterial activity |
| COc1ccc(-n2cc(COCCc3noc4cc(OC)c(Cl)cc34)nn2)cc1 [Compound 9h, 5-Chloro-6-methoxy-3-(2-((1-(4-methoxyphenyl)-1H-1,2,3-triazol-4-yl)methoxy)ethyl) benzo[d]isoxazole] | 0.5 mm | – | antibacterial activity in words [1]: showed antibacterial activity |
| COc1cc2onc(CCOCc3cn(-c4ccc(Br)c(C(F)(F)F)c4)nn3)c2cc1Cl [Compound 9o, 3-(2-((1-(4-Bromo-3-(trifluoromethyl)phenyl)-1H-1,2,3-triazol-4-yl)methoxy)ethyl)-5-chloro-6-methoxybenzo[d]isoxazole] | – | moderate inhibition | – |
| COc1cc2onc(CCOCc3cn(-c4ccccc4OC)nn3)c2cc1Cl [Compound 9g, 5-Chloro-6-methoxy-3-(2-((1-(2-methoxyphenyl)-1H-1,2,3-triazol-4-yl)methoxy)ethyl) benzo[d]isoxazole] | – | – | zone of inhibition ([2]; 75 μl): 0.9 mm; zone of inhibition ([2]; 100 μl): 1.2 mm |
| O=C1Nc2ccccc2/C1=N/N=C/c1ccc(OCc2cn(Cc3ccccc3F)nn2)cc1 [III] | – | – | IC50 (α-glucosidase): 16.4 µM |
| COc1cc2onc(CCOCc3cn(-c4ccc(F)cc4)nn3)c2cc1Cl [Compound 9j, 5-Chloro-3-(2-((1-(4-fluorophenyl)-1H-1,2,3-triazol-4-yl)methoxy)ethyl)-6-methoxy benzo[d]isoxazole] | – | moderate inhibition | – |
| COc1cc2onc(CCOCc3cn(-c4cccc(Cl)c4)nn3)c2cc1Cl [Compound 9c, 5-Chloro-3-(2-((1-(3-chlorophenyl)-1H-1,2,3-triazol-4-yl)methoxy)ethyl)-6-methoxybenzo[d]isoxazole] | 0.4 mm | – | – |
| O=c1oc2ccccc2c(O)c1C(c1ccc(OCc2cn(-c3ccccc3Cl)nn2)cc1)c1c(O)c2ccccc2oc1=O [I] | – | – | IC50 (α-glucosidase): 13 µM |
| COc1cc2onc(CCOCc3cn(-c4ccc(C)c(C)c4)nn3)c2cc1Cl [Compound 9m, 5-Chloro-3-(2-((1-(3,4-dimethylphenyl)-1H-1,2,3-triazol-4-yl)methoxy)ethyl)-6-methoxy benzo[d]isoxazole] | – | moderate inhibition | – |
| COc1cc2onc(CCOCc3cn(-c4ccc(Br)cc4)nn3)c2cc1Cl [Compound 9n, 3-(2-((1-(4-Bromophenyl)-1H-1,2,3-triazol-4-yl)methoxy)ethyl)-5-chloro-6-methoxy benzo[d]isoxazole] | – | moderate inhibition | – |
| COc1cc2onc(CCOCc3cn(-c4ccccc4C(F)(F)F)nn3)c2cc1Cl [Compound 9k, 5-Chloro-6-methoxy-3-(2-((1-(2-(trifluoromethyl)phenyl)-1H-1,2,3-triazol-4-yl)methoxy)ethyl)benzo[d]isoxazole] | – | moderate inhibition | – |
| COc1cc2onc(CCOCc3cn(-c4ccc(Br)c(F)c4)nn3)c2cc1Cl [Compound 9i, 3-(2-((1-(4-Bromo-3-fluorophenyl)-1H-1,2,3-triazol-4-yl)methoxy)ethyl)-5-chloro-6-methoxybenzo[d]isoxazole] | – | moderate inhibition | – |
| COc1cc2onc(CCOCc3cn(-c4ccccc4C)nn3)c2cc1Cl [Compound 9f, 5-Chloro-6-methoxy-3-(2-((1-(o-tolyl)-1H-1,2,3-triazol-4-yl)methoxy)ethyl)benzo[d] isoxazole] | 0.5 mm | – | antibacterial activity in words [1]: showed antibacterial activity |
